The test system of this experiment is SOD1. Briefly: Analysis of SOD1 in iPS cell-derived astrocytes (Western blotting). It counts as cell-based, human. As to conditions: astrocytes differentiated from ALS patient iPS cells (SOD1 L106V); 5 nM, 50 nM, 500 nM and 5 μM; 48 hours incubation; Western blotting vs vehicle 0.5% DMSO. As for the experimental part:
The iPS cell-derived astrocytes were seeded to a 6-well plate at a density of 250,000 cells/well. After a vehicle [0.5% dimethylsulfoxide (DMSO)], cycloheximide at a final concentration of 5 μg/ml, and Atorvastatin Calcium Salt (Toronto Research Chemicals Inc.) at various final concentrations (5 nM, 50 nM, 500 nM and 5 μM) were added, the plate was incubated for 48 hours. Subsequently, the cells were recovered, and lysed using a 20 mM Hepes, pH 7.4, containing 1% triton X-100, 10% glycerol, 5 mM EDTA, 120 mM NaCl and protease inhibitor cocktail (Complete; Roche), on ice for 30 minutes. The cell lysate was centrifuged at 15,000 rpm, 4° C. for 30 minutes, and the supernatant was recovered. Western blotting was performed using this cytolysis supernatant. Specifically, 20 μg aliquot of the protein was separated by SDS-PAGE (4-12% polyacrylamide gels), transferred to a PVDF membrane, and incubated with an anti-SOD1 antibody (1:2000 dilution) (Stressgen Company) or an anti-β-actin antibody (1:5000 dilution) (Sigma-Aldrich Company). After the incubation, the amount expressed was detected by ECL (Enhanced ChemiLuminescence) using an HRP-linked anti-rabbit IgG antibody (1:5000; GE healthcare) and an HRP-linked anti-mouse IgG antibody (1:5000; GE healthcare). […] Meanwhile, when the vehicle DMSO alone was added to the human iPS cell 253G4 described by Nakagawa M et al. in Nat. Biotechnol. […]
Background: In western blotting, separated proteins are transferred to a membrane and probed.

Counter-ions that a name gives are not always drawn.

With `CC(C)c1c(C(=O)Nc2ccccc2)c(-c2ccccc2)c(-c2ccc(F)cc2)n1CC[C@H](O)C[C@@H](O)CC(=O)O` [Atorvastatin Calcium Salt, (3R,5S)-7-[2-(4-fluorophenyl)-5-(1-methylethyl)-3-phenyl-4-phenylaminocarbonyl-1H-pyrrol-1-yl]-3,5-dihydroxyheptanoic acid], the “expression of SOD1 (amount of SOD1 protein)” value is reported as “a reduction in the expression of SOD1 was observed”.
